Measured values reported in ChEMBL document CHEMBL3507680, “University of Dundee, Gates Library screen for HepG2 cell viability”.
Values joined by “and” are separate entries in the source; they are usually repeats but may differ in a detail not shown here. Equal entries are not always repeated.

Experiment: Human HepG2 cell viability assay in 384 well format
Type: toxicity, cell-based
Parameters: dose 125 nL, time 70.5 hour; cytotoxicity at 70.5 h: concentration not given beside the values
Settings: for cytotoxicity at 70.5 h: HepG2 cells, read-out: Inhibition

| Compound | cytotoxicity at 70.5 h | Inhibition (hepg2, 70.5 h, 70.5 h) |
| --- | --- | --- |
| Nc1nccnc1C1CN(C(=O)c2cnccn2)CCO1 (stereo not drawn) | -4.25% | – |
| CC(COc1ccccc1F)NC(=O)N[C@@H]1C=C[C@H](CO)C1 (stereo partly drawn) | -7.04% | – |
| CCCn1ncc(CN2C[C@@H]3CCCN3C[C@@H]2CCSC)c1C | 8.56% | – |
| COc1ccccc1[C@@H]1CN(Cc2ccc3nsnc3c2)C[C@H]1C(=O)O | -5.24% | – |
| Cc1nc(CCNC(=O)c2cc(C(C)C)nn2C)sc1C | -10.1% | – |
| Cc1c(O)oc(-c2ccc(Br)cc2)nc1=O | 53.6% | – |
| Cc1nnc(NCc2cccc(OCc3ccccn3)c2)c(C#N)c1C | -4.44% | – |
| Cc1ccc(OCc2nc(CNCCn3cccn3)cs2)cc1 | -2.86% | – |
| Cc1c(C(C)NCc2cnn(C)c2)cnn1-c1ccccc1 (stereo not drawn) | 2.44% | – |
| O=C(c1cc(COc2ccc3c(c2)OCO3)[nH]n1)N1CCCC1 | -5.85% | – |
| c1cc(CN2C[C@@H]3OCCN(CC4CCCO4)[C@@H]3C2)co1 (stereo partly drawn) | -10.8% | – |
| CC(C)NC(=O)[C@H](C)NC(=O)N1CCN(c2ccc(Cl)cc2)CC1 | -15.6% | – |
| Cc1cc(N(C)CCCn2cccn2)nc(-c2cccnc2)n1 | 11.2% | – |
| O=C(c1cncc(N2CCC3(CCNCC3)CC2)n1)N1CCCC1 | 12.4% | – |
| Cc1ncsc1C(=O)N(C)Cc1ccc(Br)o1 | 20.1% | – |
| Cc1nonc1C(=O)N1CCc2c(ncn2CCc2ccccc2)C1 | -7.1% | – |
| Cc1n[nH]c(C)c1CNc1ccc(-c2nc(C3CC3)no2)cn1 | -0.0598% | – |
| Cc1cc(=O)c2cc(F)ccc2n1CC(=O)O | -3.7% | – |
| CC(C)(O)CN1CCN(C(=O)COCC(F)(F)F)CC1 | 15.1% | – |
| Cc1c(Cl)cccc1NC(=O)N1CCC2(CC1)NC(=O)CC2C(=O)O (stereo not drawn) | 1.01% | – |
| CN(C)c1cc(C(=O)NCCc2nnc(-c3ccco3)[nH]2)ccn1 | -5.78% | – |
| COCC1COCCC12CCN(S(=O)(=O)c1ccccc1)CC2 (stereo not drawn) | 0.595% | – |
| O=C1OCCN1CCOc1nc(-c2ccccc2Cl)no1 | -4.69% | – |

| Compound | cytotoxicity at 70.5 h | Inhibition (hepg2, 70.5 h, 70.5 h) |
| --- | --- | --- |
| O=C(c1ccno1)N1CC[C@@H]2O[C@H](COCCN3CCCC3)CC[C@@H]21 | 9.33% | – |
| CC(C)c1ccc(S(=O)(=O)N2CCCC3(CCCN3S(C)(=O)=O)C2)cc1 (stereo not drawn) | 39.5% | – |
| CCc1nc(C)c(-c2nccn2CC2CC(=O)N(CC)C2)[nH]1 (stereo not drawn) | 1.63% | – |
| CNc1nccnc1C1CN(Cc2ccc(OCC(=O)O)cc2)CCO1 (stereo not drawn) | -5.37% | – |
| CN(C)S(=O)(=O)NCc1cccnc1Oc1ccc(F)cc1F | -3.42% | – |
| O=C(c1cccnc1)N1Cc2[nH]nc(COCCO)c2C1 | -4.06% | – |
| Cc1ccc(Nc2nccc(C3CN(CC(N)=O)C3)n2)nc1 | -1.76% | – |
| CN(C)c1nc(N2CCCC2)nc2c1CCN(Cc1nccn1C)CC2 | 8.52% | – |
| O=S(=O)(c1cn[nH]c1)N1CCC(O)(CN2CCC(F)(F)CC2)C1 (stereo not drawn) | 1.83% | – |
| OCCN1CCC2(CCc3cc(-c4ccoc4)ccc32)CC1 | -2.95% | – |
| Cc1cc(C)c(C(=O)N(C)CCN(C)C(=O)c2[nH]c(C)cc2C)[nH]1 | -6.06% | – |
| Cc1nc(C2CCCN(C(=O)c3ccc(Cl)cn3)C2)no1 (stereo not drawn) | -5.54% | – |
| CC(C)(C)CC(=O)Nc1ncn(CC(=O)NCc2ccccc2)n1 | 25.6% | – |
| c1ccc(CCN2CCOC(Cn3cccn3)C2)nc1 (stereo not drawn) | -4.02% | – |
| Cc1cnn(CCNCc2csc(COc3ccccc3)n2)c1 | -0.421% | – |
| Cc1nc(CN2C(=O)COC3(CCN(Cc4ccsc4)CC3)C2C)cs1 (stereo not drawn) | -1.09% | – |
| Cc1nnc(SC2CCN(c3sccc3C#N)C2=O)s1 (stereo not drawn) | 24.5% | – |
| O=c1c2sccc2nc2n1CCN(Cc1ccc(F)c(F)c1)CC2 | -9.83% | – |
| CN1CCCN(S(=O)(=O)c2cn(C)cn2)c2cc(Cl)ccc21 | -0.299% | – |
| Cc1cccc(Oc2ccccc2CNC(=O)C2CCC(=O)NC2)c1 (stereo not drawn) | -10.6% | – |
| COCc1ncn2c1CN(C(=O)c1cccc3cccnc13)CC2 | 19.6% | – |
| CCc1cnc(CCNC(C)CC(=O)Nc2cccc(C)c2C)s1 (stereo not drawn) | -5.98% | – |
| Cc1ccc(CNC(=O)c2ccc(F)cc2)o1 | -8.9% | – |

| Compound | cytotoxicity at 70.5 h | Inhibition (hepg2, 70.5 h, 70.5 h) |
| --- | --- | --- |
| Cn1cccc1C(=O)NCc1cn2c(n1)CN(Cc1ccccn1)CC2 | -13.2% | – |
| CCN1CCN(C2CCN(Cc3ccc(Cl)s3)CC2)C1=O | 1.3% | – |
| CCC(C)n1cnc(S(=O)(=O)N(C)C)c1 (stereo not drawn) | 14.5% | – |
| Cc1noc(C)c1CNS(=O)(=O)N(C)Cc1ccccc1Br | -9.08% | – |
| Cc1nnc(NCC(c2cccs2)N2CCCC2)c(C#N)c1C (stereo not drawn) | -2.36% | – |
| COC(=O)c1sccc1S(=O)(=O)N1CCC(Oc2cccnn2)CC1 | -3.46% | – |
| O=C(c1ccncc1F)N1CCCC1c1nc(-c2ccccc2)n[nH]1 (stereo not drawn) | -3.44% | – |
| OC1(CNCc2cnc(N3CCOCC3)nc2)CCCCC1 | -5.66% | – |
| CC(=O)N1N=C(c2ccco2)OC1C(=O)NCCc1ccc(O)cc1 (stereo not drawn) | -2.51% | – |
| Cn1cccc1-c1cc(C(=O)N2CC(c3cccnc3)C2)[nH]n1 | -5.83% | – |
| Cc1cc(N2CCOCC2)nc(N(C)CCO)c1C#N | -5.45% | – |
| Cc1ccc(CNCc2cccc3cn[nH]c23)c(OC2CCOC2)c1 (stereo not drawn) | 3.6% | – |
| Cc1cc(CN2CCC(CNS(=O)(=O)c3c(C)noc3C)CC2)c(C)o1 | 2.34% | – |
| N#CC1(NC(=O)c2nccc3ccccc23)CCC1 | -8.96% | – |
| Cc1cc(CN2CCN(C(=O)C3(C#N)CCCC3)CC2)on1 | 21% | – |
| Cc1ccc2[nH]c(CN(C)c3cc(CCN)nc(C)n3)nc2c1 | -8.93% | – |
| CC(C)c1noc(CCCC(=O)N2CCN(Cc3ccncc3)CC2)n1 | -17.6% | – |
| Cc1ccc(CN2CCCC3(COCCN(Cc4c[nH]nn4)C3)C2)o1 (stereo not drawn) | 0.0506% | – |
| CCOC(=O)CC(c1cccc(OC)c1OC)c1c(C)[nH][nH]c1=O (stereo not drawn) | – | -11.36% and -3.674% |
| O=C(COc1ccccc1)N1CCCC1c1ccc[nH]1 (stereo not drawn) | -17.9% | – |
| Cn1cccc1C(=O)N[C@@H]1CN(Cc2ccsc2)[C@@H]2COC[C@@H]21 | -10.2% | – |
| CC(Oc1cccc(F)c1)C(=O)N(CC(N)=O)C1CCCC1 (stereo not drawn) | 0.47% | – |
| CO[C@H]1C(=O)N(C)C2(CCNCC2)[C@@H]1C(=O)Nc1ccccc1 | -10.2% | – |

| Compound | cytotoxicity at 70.5 h | Inhibition (hepg2, 70.5 h, 70.5 h) |
| --- | --- | --- |
| COc1ccc(Br)c(C(=O)NCC2CCN(S(=O)(=O)C3CC3)CC2)c1 | 16.8% | – |
| CCN1CCc2cc(-c3cncn3CCNC3CCS(=O)(=O)C3)ccc21 (stereo not drawn) | -5.23% | – |
| O=C(c1sccc1-n1cnnn1)N1CCCCC1 | -6.17% | – |
| Cc1cnc(N2CCC3(C2)C(=O)N(C)CCN3Cc2cccnc2)nc1 (stereo not drawn) | -5.14% | – |
| CS(=O)(=O)N1CCOCC2(CCN(C(=O)c3ccco3)CC2)C1 | -8.61% | – |
| COC(=O)c1cccc(C(=O)N2CCN(c3cc(Cl)ccc3C)CC2)n1 | -2.22% | – |
| CSc1ccc(CNC(c2ccccc2)c2nccn2C)cc1 (stereo not drawn) | -1.21% | – |
| CC(=O)c1cccc(S(=O)(=O)N2CCC(c3noc(C)n3)CC2)c1 | -9.37% | – |
| Cc1cccc(CN2C(=O)CC[C@@H]3[C@H]2CCN3Cc2ccc(F)cc2)n1 | -4.94% | – |
| CS(=O)(=O)N1CCC(c2ccncn2)CC1 | -10.9% | – |
| COCCN1C[C@H]2CN(Cc3cccc(OC)c3)CCN2C1=O | -7.25% | – |
| CC(CCc1cccc(F)c1)NC(=O)NCc1ncnn1C (stereo not drawn) | -5.76% | – |
| Cc1nn(C)cc1CN1CCCC1c1cccc(Nc2nccs2)n1 (stereo not drawn) | 35.9% | – |
| O=C(NC1CC1)C1=CC2(CCN(CCO)CC2)c2ccccc21 | -11% | – |
| CN(C)C(=O)C1CCC2(CCN(Cc3ccc4ccccc4n3)CC2)O1 (stereo not drawn) | -8.67% | – |
| COc1ccc(C2CC(=O)NCc3nc4ccccn4c32)cn1 (stereo not drawn) | -1.02% | – |
| CNC(=O)C1(c2cnccn2)CCCN1C(=O)c1ccccc1OC (stereo not drawn) | 13.3% | – |
| Cn1ccc(-c2cc(C(=O)N3CCC(C(N)=O)CC3)c3ccccn23)n1 | -8.35% | – |
| COc1cccc(CN2CC(O)CN(C(=O)C3CCC3)CC2=O)c1OC (stereo not drawn) | -4.14% | – |
| O=C(NCCC(O)c1cccs1)c1ccco1 (stereo not drawn) | -9.55% | – |
| CCOC1CC2(CCN(Cc3cccn3C)CC2)C1 | 2.31% | – |
| O=C(Cc1cn2ccsc2n1)N1CCCC(n2ccnc2)C1 (stereo not drawn) | -2.03% | – |
| Cc1cnn(CC2CCCN2Cc2cn3ccsc3n2)c1 (stereo not drawn) | -9.34% | – |

| Compound | cytotoxicity at 70.5 h | Inhibition (hepg2, 70.5 h, 70.5 h) |
| --- | --- | --- |
| Cc1nc(N2CCCC2)ncc1-c1cc(O)nc(NCC2CCCO2)n1 (stereo not drawn) | -5.1% | – |
| COc1cc(N(C)Cc2noc(CC(C)C)n2)ncn1 | 20.1% | – |
| Cc1cc(NC(=O)C(C)N2CCN(c3nc(C)ns3)CC2)on1 (stereo not drawn) | 4.54% | – |
| Cc1nc[nH]c1CN1C[C@@H]2CC[C@H](C1)N(C(=O)CCNS(C)(=O)=O)C2 | -1.67% | – |
| COc1ccc(C(=O)NCCN(C)C)c(I)c1 | 2.46% | – |
| O=C(c1cocn1)N1CCC2(CC1)COC(COCc1ccccn1)C2 (stereo not drawn) | 0.202% | – |
| Nc1nc(N)c2c(n1)OC1(CCCN(Cc3nccs3)CC1)C2 (stereo not drawn) | -9.72% | – |
| CC(NCC1(N(C)C)CCOCC1)c1ccc(Cl)cc1 (stereo not drawn) | -3.88% | – |
| Cc1nn(C)cc1CN(C)C(=O)c1cnccn1 | 1.11% | – |
| OCCC[C@@H]1CN(c2ncc(Cl)cc2Cl)CC[C@@H]1N1CCOCC1 | 3.21% | – |
| Cc1cc(CC(C)NC(=O)c2n[nH]c3c2CCC3)n[nH]1 (stereo not drawn) | 3.59% | – |
| CCN1CCCC2(CCN(Cc3nnc(C4CC4)o3)C2)C1=O (stereo not drawn) | 0.731% | – |
| CS(=O)(=O)N1CCC(c2cnc(-c3cn[nH]c3)cn2)CC1 | 0.854% | – |
| Cc1nnc(N2C[C@@H](OCC3CCCC3)[C@H]3OCCC[C@H]32)s1 | -5.21% | – |
| CC(C)(O)CN1CCN(C(=O)COCC2CC2)CC1 | 2.07% | – |
| c1ccc(NCc2cnc3n2CCN(C2CCOC2)CC3)nc1 (stereo not drawn) | 15.7% | – |
| Cc1cnc(-c2nc(NC3CC3)ncc2-c2onc(C)c2C)cn1 | -4.72% | – |
| Cc1ccc(-c2cnnc(N3CCCC3c3nonc3C)n2)o1 (stereo not drawn) | -3.66% | – |
| COc1ccc2c(ccn2CCCN)c1 | -7.17% | – |
| O=C(C1CCCC1)N1CCC(c2ccnc(Nc3cnccn3)n2)C1 (stereo not drawn) | 15% | – |
| Cn1cc(S(=O)(=O)NC(=O)C2(c3ccccc3)CCC2)cn1 | -4.68% | – |
